Results as given in US8003660B2, “Modulators of muscarinic receptors” (Vertex Pharmaceuticals Incorporated, priority 2006, dated 2011).
Like-named read-outs stand apart in the source and are kept apart here.

Experiments:
Format in all cases: cell-based
[1] = biological target: T1, M4 muscarinic receptor (Homo sapiens, UniProt P08173); assay: Functional mobilization of intracellular calcium (FLIPR) in CHO cells expressing M4; conditions: for EC50: CHO cells expressing M4, FLIPR calcium; for Emax: CHO; for M4 Activity: CHO cells expressing M4, FLIPR calcium assay
T1 construct: expressed in transfected cells; host or cells: CHO (M4-CHO)
T1 sequence (P08173 1-479): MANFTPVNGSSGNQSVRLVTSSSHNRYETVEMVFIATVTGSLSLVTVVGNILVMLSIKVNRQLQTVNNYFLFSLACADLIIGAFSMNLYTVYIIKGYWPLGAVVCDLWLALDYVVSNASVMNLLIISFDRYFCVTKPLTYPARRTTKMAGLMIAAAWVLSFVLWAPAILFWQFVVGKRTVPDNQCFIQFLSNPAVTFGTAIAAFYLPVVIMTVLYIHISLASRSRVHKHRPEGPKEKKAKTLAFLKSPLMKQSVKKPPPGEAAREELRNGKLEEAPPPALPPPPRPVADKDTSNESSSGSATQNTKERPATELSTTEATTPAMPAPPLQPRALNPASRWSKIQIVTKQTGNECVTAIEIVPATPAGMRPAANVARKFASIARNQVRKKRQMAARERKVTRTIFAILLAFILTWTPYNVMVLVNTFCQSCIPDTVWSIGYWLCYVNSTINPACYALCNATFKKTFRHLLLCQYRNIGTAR
Method in brief: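 Recombinant CHO cells loaded with Fluo-3 AM or Calcium 3 dye in pH 7.4 buffer containing 1 mM probenecid, with 0.5% final DMSO. For agonism, compound is added directly. For inhibition, it is preincubated 15 min, or co-applied, before carbachol at EC80. FLIPR fluorescence (ex 488, em 540 nm) is recorded for 60 s.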

[2] = biological target: T2, M2 muscarinic receptor (Homo sapiens, UniProt P08172); assay: Functional mobilization of intracellular calcium (FLIPR) in CHO cells expressing M2; conditions: for EC50: CHO cells expressing M2, FLIPR calcium; for Emax: CHO; for M2 Activity: CHO cells expressing M2, FLIPR calcium assay
T2 construct: expressed in transfected cells; host or cells: CHO (M2-CHO)
T2 sequence (P08172 1-466): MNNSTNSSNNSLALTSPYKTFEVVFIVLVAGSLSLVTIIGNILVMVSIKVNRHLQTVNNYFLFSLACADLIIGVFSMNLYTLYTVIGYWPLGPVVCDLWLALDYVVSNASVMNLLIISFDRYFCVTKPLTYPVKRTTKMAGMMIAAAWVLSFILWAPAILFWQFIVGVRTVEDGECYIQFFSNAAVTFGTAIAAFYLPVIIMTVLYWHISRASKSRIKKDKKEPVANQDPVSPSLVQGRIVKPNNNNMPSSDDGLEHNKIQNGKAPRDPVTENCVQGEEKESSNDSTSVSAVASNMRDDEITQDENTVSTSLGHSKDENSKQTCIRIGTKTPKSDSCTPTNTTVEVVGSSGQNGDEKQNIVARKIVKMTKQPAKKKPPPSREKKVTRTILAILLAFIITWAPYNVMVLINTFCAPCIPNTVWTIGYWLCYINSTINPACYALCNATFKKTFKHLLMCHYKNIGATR
Method in brief: (§1)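 Calcium flux is read on FLIPR over 60 sec at 488/540 nm in muscarinic-receptor CHO lines. Antagonist mode adds carbachol at EC80 after 15 min compound preincubation or with simultaneous co-application. Agonist mode adds compound alone. Cells carry Fluo-3 or Calcium 3 dye in probenecid-containing pH 7.4 buffer, 0.5% DMSO final.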

[3] = biological target: T3, M3 muscarinic receptor (Homo sapiens, UniProt P20309); assay: Functional mobilization of intracellular calcium (FLIPR) in CHO cells expressing M3; conditions: for EC50: CHO cells expressing M3, FLIPR calcium; for Emax: CHO; for M3 Activity: CHO cells expressing M3, FLIPR calcium assay
T3 construct: expressed in transfected cells; host or cells: CHO (M3-CHO)
Method in brief: as §1

[4] = biological target: T4, M1 muscarinic receptor (Homo sapiens, UniProt P11229); assay: Functional mobilization of intracellular calcium (FLIPR) in CHO cells expressing M1; conditions: for EC50: CHO cells expressing M1, FLIPR calcium; for Emax: CHO; for M1 Activity: CHO cells expressing M1, FLIPR calcium assay
T4 construct: expressed in transfected cells; host or cells: CHO (M1-CHO)
T4 sequence (P11229 1-460): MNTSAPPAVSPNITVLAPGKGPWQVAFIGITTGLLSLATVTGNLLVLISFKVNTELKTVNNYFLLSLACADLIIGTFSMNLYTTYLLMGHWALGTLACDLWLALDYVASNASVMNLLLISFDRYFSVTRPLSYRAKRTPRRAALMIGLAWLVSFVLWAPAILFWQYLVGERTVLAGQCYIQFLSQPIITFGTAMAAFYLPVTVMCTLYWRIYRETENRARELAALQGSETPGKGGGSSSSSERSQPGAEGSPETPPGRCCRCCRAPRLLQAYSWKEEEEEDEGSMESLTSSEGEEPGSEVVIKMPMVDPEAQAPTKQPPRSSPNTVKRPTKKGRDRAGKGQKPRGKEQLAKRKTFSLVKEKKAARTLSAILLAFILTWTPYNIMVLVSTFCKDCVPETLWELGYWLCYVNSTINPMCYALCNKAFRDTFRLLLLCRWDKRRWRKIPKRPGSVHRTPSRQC
Method in brief: as §1

[5] = 100% = maximum response obtained with the Carbachol control, read-out: M4 Efficacy
[6] = 100% = maximum response obtained with the Carbachol control, read-out: M2 Efficacy
[7] = 100% = maximum response obtained with the Carbachol control, read-out: M3 Efficacy
[8] = 100% = maximum response obtained with the Carbachol control, read-out: M1 Efficacy
[9] = 100% efficacy = maximum response obtained with the Carbachol control

T3 sequence (P20309 whole entry): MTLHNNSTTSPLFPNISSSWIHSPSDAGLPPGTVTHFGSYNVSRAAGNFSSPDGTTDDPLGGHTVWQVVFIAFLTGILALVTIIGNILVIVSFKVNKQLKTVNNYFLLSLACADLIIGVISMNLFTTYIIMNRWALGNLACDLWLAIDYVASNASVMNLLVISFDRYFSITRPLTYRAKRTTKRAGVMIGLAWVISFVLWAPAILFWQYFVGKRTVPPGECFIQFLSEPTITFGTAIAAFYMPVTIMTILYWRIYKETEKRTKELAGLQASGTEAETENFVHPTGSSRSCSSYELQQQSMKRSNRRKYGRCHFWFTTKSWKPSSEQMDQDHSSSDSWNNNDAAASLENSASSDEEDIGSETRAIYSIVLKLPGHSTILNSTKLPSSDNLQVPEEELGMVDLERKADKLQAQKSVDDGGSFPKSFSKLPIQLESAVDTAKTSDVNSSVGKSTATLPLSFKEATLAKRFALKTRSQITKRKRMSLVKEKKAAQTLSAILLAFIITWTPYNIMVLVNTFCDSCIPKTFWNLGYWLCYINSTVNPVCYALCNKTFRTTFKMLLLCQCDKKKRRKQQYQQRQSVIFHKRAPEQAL

Row | Structure (SMILES) | EC50 [1] [nM] | Emax [1, 5] [%] | EC50 [2] [nM] | Emax [2, 6] [%] | EC50 [3] [nM] | Emax [3, 7] [%] | EC50 [4] [nM] | Emax [4, 8] [%] | M4 Activity [1] | Emax [1, 9] [%] | M2 Activity [2] | Emax [2, 9] [%] | M3 Activity [3] | Emax [3, 9] [%] | M1 Activity [4] | Emax [4, 9] [%]
1 | CCN(C(C)=O)[C@H]1CCC2(CCN(CCC(C)(C)C)CC2)c2cc(F)ccc21 [compound 77] | < 2000 | 25 to 100 | 2000 to 5000 | < 25 | > 5000 | < 25 | < 2000 | 25 to 100 | – | – | – | – | – | – | – | –
2 | CC(=O)NCCC(=O)N[C@H]1CCC2(CCN(CCC(C)(C)C)CC2)c2cc(F)ccc21 [compound 96] | < 2000 | 25 to 100 | < 2000 | 25 to 100 | > 5000 | < 25 | < 2000 | 25 to 100 | – | – | – | – | – | – | – | –
3 | CC(=O)N[C@H]1CC2(CCN(C(=O)OC(C)(C)C)CC2)c2ccc(C)cc21 [compound 261] | – | – | – | – | – | – | – | – | + (activity was measured to be greater than 5.0 μM) | < 25 | + (activity was measured to be greater than 5.0 μM) | < 25 | + (activity was measured to be greater than 5.0 μM) | < 25 | + (activity was measured to be greater than 5.0 μM) | < 25
4 | CCN(C(=O)COC)[C@H]1CCC2(CCN(CCC(C)(C)C)CC2)c2ccccc21 [compound 181] | < 2000 | 25 to 100 | > 5000 | < 25 | > 5000 | < 25 | 2000 to 5000 | 25 to 100 | – | – | – | – | – | – | – | –
5 | COC(=O)CN(C(C)=O)[C@H]1CCC2(CCN(CCC(C)(C)C)CC2)c2ccccc21 [compound 50] | < 2000 | 25 to 100 | > 5000 | < 25 | > 5000 | < 25 | > 5000 | 25 to 100 | – | – | – | – | – | – | – | –
6 | CCN(C(C)=O)[C@H]1CCC2(CCN(CCC(C)(C)C)CC2)c2ccccc21 [compound 211] | – | – | – | – | – | – | – | – | +++ (activity was measured to be less than 2.0 μM) | 25 to 100 | + (activity was measured to be greater than 5.0 μM) | < 25 | + (activity was measured to be greater than 5.0 μM) | < 25 | +++ (activity was measured to be less than 2.0 μM) | 25 to 100
7 | CC(C)(C)CCN1CCC2(CC[C@H](N3CCCCC3=O)c3ccc(F)cc32)CC1 [compound 222] | – | – | – | – | – | – | – | – | +++ (activity was measured to be less than 2.0 μM) | 25 to 100 | + (activity was measured to be greater than 5.0 μM) | < 25 | + (activity was measured to be greater than 5.0 μM) | < 25 | +++ (activity was measured to be less than 2.0 μM) | 25 to 100
8 | CC(C)CCN1CCC2(CC[C@H](NS(C)(=O)=O)c3ccccc32)CC1 [compound 80] | < 2000 | 25 to 100 | > 5000 | < 25 | > 5000 | < 25 | < 2000 | 25 to 100 | – | – | – | – | – | – | – | –
9 | CC(=O)N(C)CCC(=O)N[C@H]1CCC2(CCN(CCC(C)(C)C)CC2)c2ccccc21 [compound 171] | < 2000 | 25 to 100 | < 2000 | 25 to 100 | > 5000 | < 25 | < 2000 | 25 to 100 | – | – | – | – | – | – | – | –
